Patent US20190290656A1, “PT(IV) PRODRUGS” (YISSUM RESEARCH DEVELOPMENT COMPANY OF THE HEBREW …, priority 2015, published 2019)

How the values were obtained:
HCT-15 cells = assay: MTT cytotoxicity assay, HCT-15; type: cell-based, human; details: HCT-15, 72 h, MTT (Table 5); read-out: IC50 (μM) ± S.D.
Method: (§1) Cisplatin (CDDP) and oxaliplatin (OXP) were dissolved just before the experiment in a 0.9% NaCl solution. […]
(§2) Cancer Res. 1988, 48, 589-601]. […] Triplicate cultures were established for each treatment.
(§3) MTT assay. […] Triplicate cultures were established for each treatment.
(§4) The two dimers, 3a and 3b, as well as compounds 1a and 2a were screened against six human cancer cell lines representative of lung (H157), colon (HCT-15), cervical (A431), ovarian (2008) and pancreatic (PSN1) cancers, along with melanoma (A375). Cytotoxicity was evaluated by means of the MTT test after 72 h of treatment and the in vitro antitumor potential of newly synthesized derivatives was compared to that of the reference metallo-drugs CDDP and OXP.

A375 cells = assay: MTT cytotoxicity assay, A375; type: cell-based, human; details: A375, 72 h, MTT (Table 5); read-out: IC50 (μM) ± S.D.
Method: as §1, §2, §3, §4

2008 cells [1] = assay: MTT cytotoxicity assay, 2008; type: cell-based, human; details: 2008, 72 h, MTT
Method: as §3, §4

A431 cells = assay: MTT cytotoxicity assay, A431; type: cell-based, human; details: A431, 72 h
Method: as §3, §4

H157 cells = assay: MTT cytotoxicity assay, H157; type: cell-based, human; details: H157, 72 h
Method: as §3, §4

PSN1 cells = assay: MTT cytotoxicity assay, PSN1; type: cell-based, human; details: PSN1, 72 h, MTT
Method: as §3, §4

HCT-15 spheroids = assay: 3D spheroid APH assay, HCT-15; type: cell-based, human; details: HCT-15 spheroids, 72 h, APH test
Text: (§5) Acid phosphatase (APH) assay. A modified APH assay, which is based on quantification of cytosolic acid phosphatase activity, was used for determining cell viability in spheroids. […] Triplicate cultures were established for each treatment. […] Evaluation was based on means from at least four independent experiments.
(§6) In order to improve the predictive capacity of the in vitro assays, we tested the activity in three three-dimensional (3D) cell cultures; human colon cancer cells, HCT-15, and human pancreatic cancer cells, KRAS wild type BxPC3 cells KRAS mutated PSN-1 cells. The cancer spheroids were treated with 3a and 3b for 72 h and the cell viability was assessed by means of the APH assay (Table 6). For comparison purposes, the cytotoxicities of CDDP and OXP were evaluated under the same experimental conditions.

BxPC3 spheroids = assay: 3D spheroid APH assay, BxPC3; type: cell-based, human; details: 72 h, APH test
Text: as §5, §6

PSN-1 spheroids = assay: 3D spheroid APH assay, PSN-1; type: cell-based, human; details: PSN-1 spheroids, 72 h, APH test
Text: as §5, §6

[2] = system: human embryonic kidney HEK293 cells; assay: MTT cytotoxicity against non-tumor cells; type: cell-based
Method: as §3
The cytotoxic activity of derivatives 3a and 3b was also evaluated against non-tumor cells, namely human embryonic kidney HEK293 cells (Table 7). Both compounds 3a and 3b were more cytotoxic than CDDP.

[3] = system: Histone deacetylase (HDAC); assay: Histone deacetylase assay in 2008 cells; type: cell-based, human; details: 24 h, IC50 concentrations
Method: (§7) Histone deacetylase assay. Histone deacetylase activity was determined using Fluor-de-Lys® HDAC fluorometric activity assay kit (Enzo Life Sciences International, Inc., Plymount Meeting, Pa., U.S.A.). 2008 and PSN1 cells (5.10^4 seeded in 96-well microplates) were treated for 24 h with tested complexes, and then processed as reported by the manufacturer's instructions. Fluorescence was measured using a Fluoroskan Ascent FL (Labsystem, Finland) plate reader, with excitation at 360 nm and emission at 460 nm.
(§8) Thus, we measured both the levels of DNA platination and the ability of these pro-drugs to inhibit HDAC activity in cancer cells.

[4] = system: Histone deacetylase (HDAC); assay: Histone deacetylase assay in PSN-1 cells; type: cell-based, human; details: 24 h, IC50 concentrations
Method: as §7, §8

2008 cells [5] = assay: Glycolysis (Mito-ID O2 sensor), 2008; type: cell-based, human; details: IC50 concentrations, 24 h
Method: (§9) Glycolysis. The cellular glycolytic activity was assessed using the Mito-ID® O2 Extracellular Sensor Kit according to the manufacturer's instructions (Enzo Life Sciences, Farmingdale, N.Y.). Briefly, PSN-1 cells (15·10^3 per well) were seeded in 96-well plates. After 24 h, cells were treated with Mito-ID® O2 Sensor Probe Solution containing the tested compounds at the appropriate concentration. Fluorescence was estimated using a plate reader (Fluoroskan Ascent FL, Labsystem, Finland) at 350 nm (excitation) and 610 nm (emission).
(§10) Based on the above findings, we investigated the effects determined by derivatives 3a and 3b on 2008 and PSN-1 cancer cell aerobic glycolysis and mitochondria function.
(§11) However, these effects were magnified in PSN-1 cells, having reduction of cellular glycolytic activity of about 36 and 20% for 3a and 3b, respectively. […] This latter result could be explained tacking into consideration that the reference compound [Pt(DACH)(56Phen)] itself, that is also released upon reduction of 3a and 3b, is effective in hampering cellular glycolysis in both tested cancer cell lines. The difference between 3a and 3b might be attributed to the added effect of DCA.

PSN-1 cells = assay: Glycolysis (Mito-ID O2 sensor), PSN-1; type: cell-based, human; details: IC50 concentrations, 24 h
Method: as §9, §10, §11

Substance: c,c,t,t,c,c-[(DACH)(56Phen)(OAc)Pt(μ-OOC—(CH2)2—CONH(CH2)3COO)-Pt(OAc)(NH3)2(Cl2)](TFA)2 [Compound 3b]
- IC50 (HCT-15 cells): 1.89 ± 0.69 µM
- IC50 (A375 cells): 1.05 ± 0.18 µM
- IC50 (2008 cells [1]): 6.04 µM
- IC50 (A431 cells): 5.25 ± 0.41 µM
- IC50 (H157 cells): 8.25 ± 1.21 µM
- IC50 (PSN1 cells): 6.12 µM
- IC50 (HCT-15 spheroids): 75.9 ± 4.52 µM
- IC50 (BxPC3 spheroids): 81.3 ± 6.25 µM
- IC50 (PSN-1 spheroids): 60.5 ± 5.76 µM
- IC50 ([2]; HEK293 non-tumor cells, 72 h, MTT): 7.8 ± 3.36 µM
- SI (selectivity index) ([2]; ratio between average IC50 of non-tumor cells and IC50 of malignant cells): 1.7
- HDAC activity hampered [3]: not effective in modifying HDAC activity
- HDAC activity hampered [4]: not effective in modifying HDAC activity
- reduction of glycolysis processes compared with untreated control cells (2008 cells [5]): ~14%
- reduction of cellular glycolytic activity (PSN-1 cells): ~20%
